{"source": "patent US20170137433A1", "about": "“CRYSTALLINE, ANHYDROUS FORMS OF OXYMORPHONE HYDROCHLORIDE” (Endo Pharmaceuticals Inc., priority 2011, published 2017)", "experiment": "Solid-form stability of the polymorph (heat treatment / storage observation)", "type": "physicochemical", "conditions": "at room temperature and at elevated temperatures; solid form obtained by heating at 200° C. for 3-4 hours in a drying oven", "procedure": "This polymorph was obtained by a heat treatment of either the above-described polymorph mixture or of oxymorphone hydrochloride monohydrate at 200° C. for a period of 3-4 hours in a drying oven.", "note": "Where a name gives a salt, the structure may show the parent alone.", "data": [{"smiles": "CN1CC[C@]23c4c5ccc(O)c4O[C@H]2C(=O)CC[C@@]3(O)[C@H]1C5", "note": "[second polymorph, crystalline, anhydrous hydrochloride salt of 4,5α-epoxy-3,14-dihydroxy-17-methylmorphinan-6-one]", "values": [{"measurement": "polymorphic form stability", "value": "stable at room temperature and at elevated temperatures"}]}]}
